Results: PMC5916032 (Journal of molecular biology, 2018)

Molecular target: fascin 1 (Homo sapiens, UniProt Q16658)
Assay: X-ray co-crystal structure
Format: biochemical

For `Cc1cnoc1C(=O)Nc1nn(Cc2ccc(C(F)(F)F)cc2)c2ccccc12` [NP-G2-029, 4-methyl-N-(1-(4-(trifluoromethyl)benzyl)-1H-indazol-3-yl)isoxazole-5-carboxamide], the IC50 was roughly 180 nM.
